For 3 compounds, IC50 results are on record in BindingDB's records for doi:10.7270/Q2B856NC (Burnham Center For Chemical Genomics, 2011).

Usually IC50 stands for the midpoint of a concentration-inhibition curve. Read a low IC50 as greater potency.

This assay concerns the target T1, Apelin receptor (Homo sapiens, UniProt P35414).
T1 sequence (P35414 whole entry): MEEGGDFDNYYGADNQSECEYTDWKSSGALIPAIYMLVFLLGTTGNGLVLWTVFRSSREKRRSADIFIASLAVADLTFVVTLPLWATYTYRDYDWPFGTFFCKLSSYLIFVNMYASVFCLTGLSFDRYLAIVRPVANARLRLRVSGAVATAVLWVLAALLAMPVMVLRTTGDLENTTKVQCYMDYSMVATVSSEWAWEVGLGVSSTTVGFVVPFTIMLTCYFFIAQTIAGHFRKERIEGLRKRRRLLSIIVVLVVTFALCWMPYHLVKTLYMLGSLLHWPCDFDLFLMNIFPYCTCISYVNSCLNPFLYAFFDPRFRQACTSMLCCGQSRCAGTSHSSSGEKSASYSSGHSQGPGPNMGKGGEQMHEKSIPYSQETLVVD
Kind of assay: APJ beta-arrestin recruitment antagonism, SAR follow-up, selectivity assay for CCR6 antagonist project, cell-based, luminescent, enzyme-fragment complementation (AID 588359). For orientation: Arrestin recruitment assays detect the binding of arrestin to an activated receptor.

With `OCC12C=CC(O1)c1c2c(O)n(-c2ccccc2-c2ccccc2)c1O` (stereo not drawn) [7-(hydroxymethyl)-2-(2-phenylphenyl)-4,7a-dihydro-3aH-octahydro-1H-4,7-epoxyisoindole-1,3-dione], the IC50 is over 66.6 µM.
To `CC(N=Nc1ccc2ccccc2n1)c1ccccc1O` (stereo not drawn) [(6Z)-6-[1-[N'-(2-quinolyl)hydrazino]ethylidene]cyclohexa-2,4-dien-1-one] belongs 4.12 µM.
The compound `CN1C(=O)C(C2CC(c3ccc(Cl)cc3)N=N2)C(=O)N(C)C1=O` (stereo not drawn) [SMR000439471] returned a concentration for half-maximal inhibition (IC50) of 7.22 µM.
